In ChEMBL document CHEMBL1157442, “Discovery of new binding elements in DPP-4 inhibition and their applications in novel DPP-4 inhibitor design” (Bioorg Med Chem Lett, 2008):

Columns and labels:
[1] = molecular target: Dipeptidyl peptidase 8 (Homo sapiens, UniProt Q6V1X1); experiment: Inhibition of DPP8
[2] = molecular target: Dipeptidyl peptidase 4 (Homo sapiens, UniProt P27487); experiment: Inhibition of DPP4
[3] = Clearance in rat plasma at 1 mg/kg, iv and 2 mg/kg, po; assay type: ADME, organism-based
[4] = Cmax in rat 1 mg/kg, iv and 2 mg/kg, po; assay type: ADME, organism-based; details: in vivo
[5] = Half life in rat plasma 1 mg/kg, iv and 2 mg/kg, po; assay type: ADME, organism-based
[6] = Oral bioavailability in rat at 2 mg/kg; assay type: ADME, organism-based; details: in vivo

Sequence of Dipeptidyl peptidase 4 (P27487 whole entry): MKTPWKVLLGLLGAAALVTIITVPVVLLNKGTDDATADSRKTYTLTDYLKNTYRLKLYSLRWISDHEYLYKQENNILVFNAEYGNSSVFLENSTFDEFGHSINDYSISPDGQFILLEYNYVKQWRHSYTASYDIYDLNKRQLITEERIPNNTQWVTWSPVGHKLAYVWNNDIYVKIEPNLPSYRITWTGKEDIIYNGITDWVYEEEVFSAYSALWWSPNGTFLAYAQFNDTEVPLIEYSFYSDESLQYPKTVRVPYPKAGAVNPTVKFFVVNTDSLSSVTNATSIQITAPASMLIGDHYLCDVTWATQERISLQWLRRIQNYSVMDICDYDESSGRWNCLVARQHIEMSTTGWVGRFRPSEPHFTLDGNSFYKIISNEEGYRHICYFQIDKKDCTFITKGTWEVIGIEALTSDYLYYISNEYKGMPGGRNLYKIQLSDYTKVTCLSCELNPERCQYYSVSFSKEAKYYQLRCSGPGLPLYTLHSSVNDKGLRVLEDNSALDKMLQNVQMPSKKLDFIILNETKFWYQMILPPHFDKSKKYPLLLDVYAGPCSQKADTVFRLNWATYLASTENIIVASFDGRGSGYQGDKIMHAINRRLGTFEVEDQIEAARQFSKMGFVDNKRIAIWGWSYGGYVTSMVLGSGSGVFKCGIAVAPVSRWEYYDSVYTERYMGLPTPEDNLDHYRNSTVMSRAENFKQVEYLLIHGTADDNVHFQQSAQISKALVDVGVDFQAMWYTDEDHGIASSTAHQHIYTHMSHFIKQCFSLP
Sequence of Dipeptidyl peptidase 8 (Q6V1X1 whole entry): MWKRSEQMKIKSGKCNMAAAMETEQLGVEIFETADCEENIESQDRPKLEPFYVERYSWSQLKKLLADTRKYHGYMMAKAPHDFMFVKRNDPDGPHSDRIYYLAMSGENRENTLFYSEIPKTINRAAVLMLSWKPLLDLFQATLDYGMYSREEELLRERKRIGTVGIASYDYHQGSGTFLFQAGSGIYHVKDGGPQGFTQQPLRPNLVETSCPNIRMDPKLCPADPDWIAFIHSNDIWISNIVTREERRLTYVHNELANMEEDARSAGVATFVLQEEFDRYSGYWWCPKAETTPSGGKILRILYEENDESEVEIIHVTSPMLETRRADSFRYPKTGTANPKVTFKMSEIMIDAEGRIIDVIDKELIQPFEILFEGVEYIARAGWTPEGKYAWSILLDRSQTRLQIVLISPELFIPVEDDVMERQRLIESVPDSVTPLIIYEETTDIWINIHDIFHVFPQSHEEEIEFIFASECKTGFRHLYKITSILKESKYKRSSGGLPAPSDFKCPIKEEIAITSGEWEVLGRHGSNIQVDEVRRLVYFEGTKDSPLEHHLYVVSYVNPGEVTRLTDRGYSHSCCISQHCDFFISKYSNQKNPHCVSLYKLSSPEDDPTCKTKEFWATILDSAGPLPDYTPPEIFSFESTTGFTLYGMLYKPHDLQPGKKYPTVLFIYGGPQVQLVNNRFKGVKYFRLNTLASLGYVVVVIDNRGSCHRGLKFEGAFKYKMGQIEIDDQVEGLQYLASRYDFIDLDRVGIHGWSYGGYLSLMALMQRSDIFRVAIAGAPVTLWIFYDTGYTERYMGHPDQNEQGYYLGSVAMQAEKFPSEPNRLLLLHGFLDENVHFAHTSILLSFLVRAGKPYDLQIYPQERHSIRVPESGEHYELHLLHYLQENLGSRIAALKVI

| Compound | IC50 [1] [µM] | IC50 [2] [µM] | also measured |
| --- | --- | --- | --- |
| C[C@H](c1nc(-c2ccc(S(C)(=O)=O)cc2Cl)no1)[C@H](N)C(=O)N1CC[C@H](F)C1 | > 100 |  |  |
| C[C@@H](c1nc(-c2ccc(S(C)(=O)=O)cc2Cl)no1)[C@H](N)Cc1cc(F)c(F)cc1F | > 100 | 0.046 |  |
| C[C@H](c1nc(-c2ccc(OC(F)(F)F)cc2)no1)[C@H](N)C(=O)N1CCCC1 | > 100 |  |  |
| C[C@@H](c1ccc(-c2ccncc2Cl)cc1)[C@H](N)C(=O)N1CC[C@H](F)C1 | > 100 | 0.071 |  |
| Cc1noc(C(=O)C[C@H](N)Cc2cc(F)ccc2F)n1 | > 100 |  |  |
| C[C@H](c1nc(-c2ccc(Cl)cc2Cl)no1)[C@H](N)C(=O)N1CC[C@H](F)C1 | > 100 | 0.615 |  |
| C[C@@H](c1nc(-c2ccc(Cl)cc2Cl)no1)[C@H](N)Cc1cc(F)c(F)cc1F | > 100 | 0.6 |  |
| C[C@@H]1C(=O)NCCCN1C(=O)C[C@H](N)Cc1ccccc1F |  | 0.04 |  |
| N[C@H](Cc1cc(F)ccc1F)c1ccc(Br)cc1 | > 100 |  |  |
| NC(=O)c1cccc(-c2ccc([C@H](N)Cc3cc(F)ccc3F)cc2)c1 | > 100 |  | clearance [3]: 13 mL/min/kg; Cmax [4]: 2100 nM; half-life [5]: 3.8 h; bioavailability [6]: 130% |
| C[C@@H](c1nc(-c2ccc(OC(F)(F)F)cc2)no1)[C@H](N)Cc1cc(F)ccc1F | > 100 | 4.4 |  |
| N[C@@H](CC(=O)N1CCC[C@H]1CO)C(=O)N1CC[C@H](F)C1 |  | 9.2 |  |
| N[C@H](Cc1cc(F)ccc1F)c1ccc(-c2ccncc2Cl)cc1 | > 100 | 0.107 |  |
